Experiment [1] deals with Mycosphaerella graminicola; Anamorph: Septoria tritici. Briefly: Fungicidal activity: Leaf Blotch of Wheat (SEPTTR). It is filed as in vivo. To be noted: Zymoseptoria tritici, wheat leaf blotch; for pest or weed control at 121.5 g/ha: Low Volume (121.5 g/H); for pest or weed control at 100 µg/mL: High Volume (100 ppm). As for the experimental part: Evaluation of Fungicidal Activity: Leaf Blotch of Wheat (Mycosphaerella graminicola; Anamorph: Septoria tritici; Bayer Code […]) Technical grades of materials were dissolved in acetone, which were then mixed with nine volumes of water containing 110 ppm Triton X-100. The fungicide solutions were applied onto wheat seedlings using an automated booth sprayer to run-off. All sprayed plants were allowed to air dry prior to further handling. All fungicides were evaluated using the aforementioned method for their activity vs. all target diseases, unless stated otherwise. Wheat leaf blotch and brown rust activity were also evaluated using track spray applications, in which case the fungicides were formulated as EC formulations, containing 0.1% Trycol 5941 in the spray solutions. Wheat plants (variety Yuma) were grown from seed in a greenhouse in 50% mineral soil/50% soil-less Metro mix until the first leaf was fully emerged, with 7-10 seedlings per pot. These plants were inoculated with an aqueous spore suspension of Septoria tritici either prior to or after fungicide treatments. After inoculation the plants were kept in 100% relative humidity (one day in a dark dew chamber followed by two to three days in a lighted dew chamber at 20° C.) to permit spores to germinate and infect the leaf. The plants were then transferred to a greenhouse set at 20° C. for disease to develop. When disease symptoms were fully expressed on the 1st leaves of untreated plants, infection levels were assessed on a scale of 0 to 100 percent disease severity. Percent disease control was calculated using the ratio of disease severity on treated plants relative to untreated plants.

Experiment [2] has as its system Puccinia triticina. The experiment in a line: Fungicidal activity: Wheat Brown Rust (PUCCRT). Format: in vivo. Particulars: for pest or weed control at 121.5 g/ha: Low Volume (121.5 g/H); for pest or weed control at 100 µg/mL: High Volume (100 ppm). The method, then:
Technical grades of materials were dissolved in acetone, which were then mixed with nine volumes of water containing 110 ppm Triton X-100. The fungicide solutions were applied onto wheat seedlings using an automated booth sprayer to run-off. All sprayed plants were allowed to air dry prior to further handling. All fungicides were evaluated using the aforementioned method for their activity vs. all target diseases, unless stated otherwise. Wheat leaf blotch and brown rust activity were also evaluated using track spray applications, in which case the fungicides were formulated as EC formulations, containing 0.1% Trycol 5941 in the spray solutions. Wheat plants (variety Yuma) were grown from seed in a greenhouse in 50% mineral soil/50% soil-less Metro mix until the first leaf was fully emerged, with 7-10 seedlings per pot. These plants were inoculated with an aqueous spore suspension of Septoria tritici either prior to or after fungicide treatments. After inoculation the plants were kept in 100% relative humidity (one day in a dark dew chamber followed by two to three days in a lighted dew chamber at 20° C.) to permit spores to germinate and infect the leaf. The plants were then transferred to a greenhouse set at 20° C. for disease to develop. When disease symptoms were fully expressed on the 1st leaves of untreated plants, infection levels were assessed on a scale of 0 to 100 percent disease severity. Percent disease control was calculated using the ratio of disease severity on treated plants relative to untreated plants. Evaluation of Fungicidal Activity: Wheat Brown Rust (Puccinia triticina; Synonym: Puccinia recondite f. Sp. Tritici; Bayer Code PUCCRT) Wheat plants (variety Yuma) were grown from seed in a greenhouse in 50% mineral soil/50% soil-less Metro mix until the first leaf was fully emerged, with 7-10 seedlings per pot. These plants were inoculated with an aqueous spore suspension of Puccinia triticina either prior to or after fungicide treatments. After inoculation the plants were kept in a dark dew room at 22° C. with 100% relative humidity overnight to permit spores to germinate and infect the leaf. The plants were then transferred to a greenhouse set at 24° C. for disease to develop. Fungicide formulation, application and disease assessment followed the procedures as described in the Example A.

Where [3] appears, read: 24 h, 1 Day Protectant, read-out: SEPTTR 1 DP disease control.
Setting [4] is: 72 h, 3 Day Curative, read-out: SEPTTR 3 DC disease control.
[5] abbreviates: 24 h, 1 Day Protectant, read-out: PUCCRT 1 DP disease control.
Where [6] appears, read: 72 h, 3 Day Curative, read-out: PUCCRT 3 DC disease control.

Read-outs that look alike come from different tables or passages of the source.

For `COc1ccnc(C(=O)N[C@H]2COC[C@H](CCCc3ccccc3)[C@@H](Cc3ccc(OC(F)(F)F)cc3)[C@H](C)OC2=O)c1OCOC(C)=O` [compound 76], the pest or weed control at 121.5 g/ha in experiment [1] (setting [3]) was above 70%; in experiment [1] (setting [4]), above 70%; in experiment [2] (setting [5]), above 70%; in experiment [2] (setting [6]), below 70%.
With `CCOCC(=O)OCOc1c(OC)ccnc1C(=O)N[C@H]1COC[C@H](Cc2ccccc2)[C@@H](CCC(C)C)[C@H](C)OC1=O` [compound 83], the pest or weed control at 121.5 g/ha in experiment [1] (setting [3]), in experiment [1] (setting [4]), in experiment [2] (setting [5]) and in experiment [2] (setting [6]) was above 70% in each case.
Turning to `CCCC[C@@H]1[C@@H](Cc2ccccc2)COC[C@H](NC(=O)c2nccc(OC)c2OC(C)=O)C(=O)O[C@H]1C` [compound 15], the pest or weed control at 100 µg/mL in experiment [1] (setting [3]), in experiment [1] (setting [4]), in experiment [2] (setting [5]) and in experiment [2] (setting [6]) was above 70% each time. Also, the pest or weed control at 121.5 g/ha in experiment [1] (setting [3]), in experiment [1] (setting [4]), in experiment [2] (setting [5]) and in experiment [2] (setting [6]) was above 70% each time.
Turning to `COc1ccnc(C(=O)N[C@H]2COC[C@H](CCCc3ccccc3)[C@@H](Cc3ccccc3)[C@H](C)OC2=O)c1OC(C)=O` [compound 41], the pest or weed control at 121.5 g/ha in experiment [1] (setting [3]), in experiment [1] (setting [4]), in experiment [2] (setting [5]) and in experiment [2] (setting [6]) was above 70% each time.
As for `COc1ccnc(C(=O)N[C@H]2COC[C@H](CCC(C)C)[C@@H](CCc3ccccc3)[C@H](C)OC2=O)c1OCOC(=O)C(C)C` [compound 35], the pest or weed control at 121.5 g/ha in experiment [1] (setting [3]), in experiment [1] (setting [4]), in experiment [2] (setting [5]) and in experiment [2] (setting [6]) was above 70% throughout.
`COc1ccnc(C(=O)N[C@H]2COC[C@H](CCC(C)C)[C@@H](CCC(C)C)[C@H](C)OC2=O)c1O` [compound 117]: the pest or weed control at 100 µg/mL is above 70% in experiment [1] (setting [3]), below 70% in experiment [1] (setting [4]), above 70% in experiment [2] (setting [5]) and above 70% in experiment [2] (setting [6]).
For the molecule `CCC[C@H]1COC[C@H](NC(=O)c2nccc(OC)c2OCOC(=O)C(C)C)C(=O)O[C@@H](C)[C@@H]1Cc1ccccc1` [compound 24], the pest or weed control at 121.5 g/ha in experiment [1] (setting [3]), in experiment [1] (setting [4]), in experiment [2] (setting [5]) and in experiment [2] (setting [6]) was above 70% throughout.
Regarding `CCOCC(=O)OCOc1c(OC)ccnc1C(=O)N[C@H]1COC[C@H](CCCc2ccccc2)[C@@H](Cc2ccc(OC(F)(F)F)cc2)[C@H](C)OC1=O` [compound 77], the pest or weed control at 121.5 g/ha in experiment [1] (setting [3]), in experiment [1] (setting [4]), in experiment [2] (setting [5]) and in experiment [2] (setting [6]) was below 70% in each case.
`COc1ccnc(C(=O)N[C@H]2COC[C@H](Cc3ccccc3)[C@@H](C3CCCC3)[C@H](C)OC2=O)c1OCOC(=O)C(C)C` [compound 39]: the pest or weed control at 121.5 g/ha in experiment [1] (setting [3]), in experiment [1] (setting [4]), in experiment [2] (setting [5]) and in experiment [2] (setting [6]) was above 70% each time.
For `COc1ccnc(C(=O)N[C@H]2COC[C@H](CCCc3ccccc3)[C@@H](Cc3ccccc3)[C@H](C)OC2=O)c1OCOC(C)=O` [compound 42], the pest or weed control at 121.5 g/ha was above 70% in experiment [1] (setting [3]), above 70% in experiment [1] (setting [4]), above 70% in experiment [2] (setting [5]) and below 70% in experiment [2] (setting [6]).
As for `COc1ccnc(C(=O)N[C@H]2COC[C@H](CCC(C)C)[C@@H](CCc3ccccc3)[C@H](C)OC2=O)c1OCOC(C)=O` [compound 34], the pest or weed control at 121.5 g/ha in experiment [1] (setting [3]), in experiment [1] (setting [4]), in experiment [2] (setting [5]) and in experiment [2] (setting [6]) was above 70% each time.
Regarding `COc1ccnc(C(=O)N[C@H]2COC[C@H](CCCc3ccccc3)[C@@H](Cc3ccc(OC(F)(F)F)cc3)[C@H](C)OC2=O)c1O` [compound 146], the pest or weed control at 100 µg/mL in experiment [1] (setting [3]), in experiment [1] (setting [4]), in experiment [2] (setting [5]) and in experiment [2] (setting [6]) was below 70% throughout.
With `COc1ccnc(C(=O)N[C@H]2COC[C@H](Cc3ccccc3)[C@@H](Cc3ccc(F)cc3)[C@H](C)OC2=O)c1OC(C)=O` [compound 60], the pest or weed control at 121.5 g/ha in experiment [1] (setting [3]) is above 70%; in experiment [1] (setting [4]), below 70%; in experiment [2] (setting [5]), below 70%; in experiment [2] (setting [6]), below 70%.
Turning to `CCOCC(=O)OCOc1c(OC)ccnc1C(=O)N[C@H]1COC[C@H](Cc2ccccc2)[C@@H](CC(C)C)[C@H](C)OC1=O` [compound 21], the pest or weed control at 121.5 g/ha in experiment [1] (setting [3]), in experiment [1] (setting [4]), in experiment [2] (setting [5]) and in experiment [2] (setting [6]) was above 70% in each case.
For `COc1ccnc(C(=O)N[C@H]2COC[C@H](Cc3ccccc3)[C@@H](CCc3ccccc3)[C@H](C)OC2=O)c1O` [compound 128], the pest or weed control at 100 µg/mL in experiment [1] (setting [3]) was above 70%; in experiment [1] (setting [4]) it was above 70%; in experiment [2] (setting [5]) it was above 70%; in experiment [2] (setting [6]) it was below 70%.
For the molecule `COc1ccnc(C(=O)N[C@H]2COC[C@H](Cc3ccc(Cl)cc3)[C@@H](Cc3ccccc3)[C@H](C)OC2=O)c1O` [compound 135], the pest or weed control at 100 µg/mL in experiment [1] (setting [3]) is above 70%; in experiment [1] (setting [4]) it was below 70%; in experiment [2] (setting [5]), above 70%; in experiment [2] (setting [6]), below 70%.
With `CCOCC(=O)OCOc1c(OC)ccnc1C(=O)N[C@H]1COC[C@H](CC2CC2)[C@@H](c2ccccc2)[C@H](C)OC1=O` [compound 103], the pest or weed control at 121.5 g/ha in experiment [1] (setting [3]), in experiment [1] (setting [4]), in experiment [2] (setting [5]) and in experiment [2] (setting [6]) was above 70% each time.
`COc1ccnc(C(=O)N[C@H]2COC[C@H](Cc3ccc(C(F)(F)F)cc3)[C@@H](Cc3ccccc3)[C@H](C)OC2=O)c1OCOC(=O)C(C)C` [compound 57]: the pest or weed control at 121.5 g/ha is above 70% in experiment [1] (setting [3]), above 70% in experiment [1] (setting [4]), above 70% in experiment [2] (setting [5]) and below 70% in experiment [2] (setting [6]).
`COc1ccnc(C(=O)N[C@H]2COC[C@H](CCC(C)C)[C@@H](CCc3ccccc3)[C@H](C)OC2=O)c1O` [compound 129]: the pest or weed control at 100 µg/mL in experiment [1] (setting [3]), in experiment [1] (setting [4]), in experiment [2] (setting [5]) and in experiment [2] (setting [6]) was above 70% each time.
Take `CCC[C@H]1COC[C@H](NC(=O)c2nccc(OC)c2OCOC(=O)COCC)C(=O)O[C@@H](C)[C@@H]1Cc1ccccc1` [compound 25]: the pest or weed control at 121.5 g/ha in experiment [1] (setting [3]), in experiment [1] (setting [4]), in experiment [2] (setting [5]) and in experiment [2] (setting [6]) was above 70% each time.

These data come from US9955691B2, “Macrocyclic picolinamides as fungicides” (DOW AGROSCIENCES LLC, priority 2014, dated 2018).
